Entries after “also recorded” stand apart in the source; their conditions may differ. Read-outs that look alike come from different tables or passages of the source.
Key:
[1] = cited from earlier work; for Human PK T 1/2 / Tmax: parent drug
[2] = humans; cited from earlier work
[3] = IR administration; memantine 10 mg bid, duloxetine 60 mg qd; cited from earlier work
[4] = system: depression model (forced swim test (FST)); assay: Dose ranging study in depression model (forced swim test); type: in vivo
Text: An isobolic experiment ensues where the drugs are combined in fractions of their EDXXs to add up to ED100 (i.e., ED50:ED50, ED25:ED75, etc.). The plot of the data is constructed. The experiment points that lie below the straight line between the ED50 points on the graph are indicative of synergy, points on the line are indicative of additive effects, and points above the line are indicative of inhibitory effects. The point of maximum deviation from the isobolic line is the optimal ratio. […] Similar protocols may be applied in a wide variety of validated animal models.

| Compound | Human PK T 1/2 ([1]; humans) [h] | Tmax ([1]; humans) [h] | Main Dose Dependent Adverse Event [2] | Tmax [3] [h] | T½ [3] [h] | Human PK T 1/2 (hrs) for ODV ([1]; humans, ODV) [h] | Tmax (hrs) for ODV ([1]; humans, ODV) [h] | ED50 [4] | Dose Dependent Tox [2] | T½ ([1]; head of release table, Example 3) |
| --- | --- | --- | --- | --- | --- | --- | --- | --- | --- | --- |
| O=C1CC2(CCCC2)CC(=O)N1CCCCN1CCN(c2ncccn2)CC1 [BUSPAR/Buspirone, buspirone] | 7 | 1 | Drowsiness, dizziness | – | – | – | – | – | – | – |
| CNCC[C@H](Oc1cccc2ccccc12)c1cccs1 [CYMBALTA/Duloxetine, duloxetine] | 12 | 6 | Dizziness | 6 | 12 | – | – | – | – | – |
| COc1ccc(C(CN(C)C)C2(O)CCCCC2)cc1 (stereo not shown) [EFFEXOR/Venlafaxine, venlafaxine] | 5 | 2 | nausea, constipation,; also recorded: anorexia, vomiting,; also recorded: somnolence, | – | – | 11 | 3 | – | – | – |
| CN(C)CCC[C@@]1(c2ccc(F)cc2)OCc2cc(C#N)ccc21 [LEXAPRO/Escitalopram, escitalopram] | – | 5 | Sexual dys | – | – | – | – | – | – | – |
| CC12CC3CC(C)(C1)CC(N)(C3)C2 [Memantine, 1-amino-3,5-dimethyladamantane] | – | – | – | 3 | – | – | – | approximately 15 μM | required, hallucination | – |
| CNCCCN1c2ccccc2CCc2ccccc21 [NORPRAMIN/Desipramine, desipramine] | 22 | 3 to 6 | Hypotension, urinary; also recorded: retention, QTC | – | – | – | – | – | – | – |
| Fc1ccc([C@@H]2CCNC[C@H]2COc2ccc3c(c2)OCO3)cc1 [PAXIL/Paroxetine, paroxetine] | 21 | 5 | Sexual dys | – | – | – | – | – | – | T½ = 21 hrs |
| CC(NC(C)(C)C)C(=O)c1cccc(Cl)c1 (stereo not shown) [WELLBUTRIN/Bupropion, bupropion] | 14 | 2 | Anorexia, constipation,; also recorded: seizures (Bold Warning) | – | – | – | – | – | – | – |

Reference: US20100292216A1, “Methods and Compositions for the Treatment of Psychiatric Conditions” (ADAMAS PHARMACEUTICALS, INC., priority 2004, published 2010)
